According to patent publication US10941126B2, “Bridged bicycloalkyl-substituted aminothiazoles and their methods of use” (Temple University—Of The Commonwealth System of Higher …, priority 2017, dated 2021):

Legend:
YB5 cells [1] = experiment: GFP reactivation in YB5 cells (flow cytometry); format: cell-based, human; conditions: for GFP reactivation activity: multiple doses, four-day drug treatment in YB5
YB5 cells [2] = experiment: RNA-seq in YB5 cells; format: cell-based, human; conditions: after excluding early response genes
Description: RNA from experiments in biological triplicates was isolated using RNeasy Mini Plus Kit (QIAGEN) following the manufacturer's instructions. Strand-specific RNA libraries were generated from 1 μg of RNA using TruSeq stranded total RNA with Ribo-Zero Gold (Illumina). Sequencing was performed using single end reads (50 bp, average 50 million reads per sample) on the HiSeq2500 platform (Illumina) at Fox Chase Cancer Center Genomic Facility. Sequenced reads were aligned to the hg19 genome assembly using TopHat2 (Kim, D., Pertea, G., Trapnell, C., Pimentel, H., Kelley, R., and Salzberg, S. L. (2013). Genome Biol 14, R36). The expression level and fold change of each treatment group was evaluated using EdgeR (Robinson, M. D., McCarthy, D. J., and Smyth, G. K. (2010), Bioinformatics 26, 139-140). Genes that had 0 reads across all samples were excluded. In order to get rid of batch effects, samples were normalized using RUVr method from the RUVseq package (Risso, D., Ngai, J., Speed, T. P., and Dudoit, S. (2014). Normalization of RNA-seq data using factor analysis of control genes or samples. Nat Biotechnol 32, 896-902). RNA data were deposited in the GEO database with the accession number GSE104837.

YB5 cells [3] = experiment: GFP reactivation in YB5 cells (flow cytometry); format: cell-based, human; conditions: for Emax at 1 µM / Emax at 5 µM / Emax at 10 µM / Emax at 25 µM: Homo sapiens, 24 h; for Emax at 1 µM: read-out: relative activity to Depsipeptide @ 1 μM %; for Emax at 5 µM: read-out: relative activity to Depsipeptide @ 5 μM %; for Emax at 10 µM: read-out: relative activity to Depsipeptide @ 10 μM %; for Emax at 25 µM: read-out: relative activity to Depsipeptide @ 25 μM %
Source text: To screen the compounds of the invention for epigenetic anti-cancer activity the YB5 cell-based system, which is derived from the human colon cancer cell line SW48, was used (Si et al., 2010, Cancer Res. 70:6968-6977; Raynal et al., 2012, Cancer Res. 72:1170-1181). YB5 cells contain a single insertion of cytomegalovirus (CMV) promoter driving green fluorescent protein (GFP) gene. GFP expression is silenced in >99.9% of YB5 cells by epigenetic mechanisms. In YB5 cells, the inserted GFP gene behaves similarly to endogenous tumor suppressor genes (TSGs) silenced by epigenetic mechanisms, and it can be reactivated by epigenetic anti-cancer agents such as DNA methylation inhibitors and/or HDAC inhibitors such as depsipeptide (Si et al., 2010, Cancer Res. 70:6968-6977; Raynal et al., 2012, Cancer Research, 72:1170-1181; Wu et al., 2008, Mol. Cell Biol, 28:3219-3235). Thus, reactivation of GFP expression and the resulting fluorescence is a measure of epigenetic anti-cancer activity.
The following procedure may be used to identify compounds of useful in the invention. YB5 cells cultured in L-15 medium supplemented with 10% fetal bovine serum and 1% P/S are treated for 24 hours with varying concentrations (50 nM, 100 nM, 500 nM, 1 μM, 5 μM, 10 μM, 25 μM, and 50 μM) of test compounds. After treatment, cells are trypsinized and re-suspended in cell culture media with propidium iodide (PI) to stain dead cells. Reactivation of GFP is measured using flow cytometry to identify the GFP positive population. The relative activities are expressed as the percent of the response compared to treatment with 20 nM HDACi depsipeptide for 24 hours. YB5 cells are grown in 1% CO2 atmosphere at 37° C.
NDL-3040 compound library consists of 3040 chemically diverse compounds that are semi-natural, derived from natural compounds, or synthetic compounds that are natural-compound-like. The small molecules were arrayed in 96-well plates as 10 mM stocks in 100% DMSO and were purchased from TimTec Inc. An aminothiazole analog library (93 small molecules) was also purchased from the same vendor and was in a 96-well plate format as 10 mM stocks in 100% DMSO. The 3040 compounds were screened at 25 μM for 24 hr. All plates were kept at −80° C. before use. YB5 cells growing in log phase (70-80% confluency) in 96-well plates were used. Each experimental 96-well plate contained 80 different compounds. Compounds were dispensed using an INTEGRA VIAFLO96 96-well pipette. After a 24 hr drug treatment, cells were trypsinized for 10 mins and re-suspended in L-15 medium containing propidium iodide (PI) to stain for dead cells. A total of 10000 cells per well were analyzed using Millipore Guava flow cytometer (EMD, Millipore). GFP positive percentage was calculated by excluding all the PI positive cells. After finishing the screening, the average Z-factor
For drug screening and dose response validations, GFP positive cells were detected by Millipore Guava flow cytometer (EMD, Millipore). Cell cycle analysis was performed using BD FACSCalibur™ by propidium iodide staining four days after drug treatment. Sub-G1 population percentage was also included to measure apoptotic cell proportion. Data were analyzed using FlowJo software version 10.2. For the cell differentiation analysis, cells were washed and stained with propidium iodide (PI), CD11 b (BD Biosciences, #562793) and the isotype control IgG (BD Biosciences, #555748). Flow cytometry analysis was performed on a Millipore Guava flow cytometer (EMD, Millipore). For the ID8 in vivo experiments, ascites was drained from 5-10 mice per group and incubated in ACK buffer (Thermo Fisher) to lyse red blood cells for 10 minutes, then washed. Ascites from each mouse was individually lysed and prepared for flow cytometry. Mononuclear cells collected were cultured for 4 hours in RPMI with 5% Fetal Bovine Serum and in the presence of Cell Stimulation Cocktail (plus protein transport inhibitors; eBioscience). […]

ID8 = ID8 ovarian cancer syngeneic immunocompetent mouse model; format: in vivo
Description: For drug screening and dose response validations, GFP positive cells were detected by Millipore Guava flow cytometer (EMD, Millipore). Cell cycle analysis was performed using BD FACSCalibur™ by propidium iodide staining four days after drug treatment. Sub-G1 population percentage was also included to measure apoptotic cell proportion. Data were analyzed using FlowJo software version 10.2. For the cell differentiation analysis, cells were washed and stained with propidium iodide (PI), CD11 b (BD Biosciences, #562793) and the isotype control IgG (BD Biosciences, #555748). Flow cytometry analysis was performed on a Millipore Guava flow cytometer (EMD, Millipore). For the ID8 in vivo experiments, ascites was drained from 5-10 mice per group and incubated in ACK buffer (Thermo Fisher) to lyse red blood cells for 10 minutes, then washed. Ascites from each mouse was individually lysed and prepared for flow cytometry. Mononuclear cells collected were cultured for 4 hours in RPMI with 5% Fetal Bovine Serum and in the presence of Cell Stimulation Cocktail (plus protein transport inhibitors; eBioscience). Cells were then washed and stained for cell surface markers including Live/Dead (eBioscience #65-0865-18), CD45 (BD Biosciences, #563891), CD3 (BD Biosciences, #560527), MHC II (Biolegend #107619, Isotype Control #400627), CD80 (BD Biosciences, #553769), CD86 (BD Biosciences, #558703) and CD11c (BD Biosciences, #564079). Flow cytometry acquisition was performed on an LSRII cytometer (BD Biosciences) and data were analyzed using FlowJo software version 10.2.
2.5×10^5 ID8-VEGF-Defensin cells were injected i.p. into 7-8-week-old female C57BL/6NHsd (C57Bl/6) mice. Three days after injection, 1 mg/kg SNS-032, 10 mg/kg SNS-032, or 5% DMSO in PBS (vehicle control) was administered i.p. every 3 days for the duration of the experiment. α-PD-1 (200 ug/mouse) or IgG control were given on days 17, 20, 24, and 27 after injection. α-PD-1 (1 mg/mL in saline) was utilized. Mouse IgG isotype control was purchased from Leinco Technologies and diluted in PBS.

YB5 cells [4] = experiment: qPCR gene expression in YB5 cells; format: cell-based, human; conditions: 24 hr treatment
Description: Total RNA was extracted using TRIzol reagent (Invitrogen) following the manufacturer's protocol and RNA concentrations were measured using Nanodrop. cDNAs were synthesized using High Capacity cDNA Reverse Transcription Kit (ThermoFisher) and qPCR was performed using either ready-made TaqMan® assays or SYBR-green using custom-designed primers. All the data were analyzed using Applied Biosystems software (StepOne™ Software V2.3). For all experiments, relative expression levels of the target genes were determined by calculating the 2^−ΔΔCt values. All experiments were performed at least in triplicates. Either GAPDH or 18S rRNA was used as an internal normalization control for protein coding genes. RPLPO was used as an internal normalization control for ERVs. All SYBR-green primers were described previously and are listed in Table 1 along with TaqMan® probes used.

Compound	Emax at 1 µM (YB5 cells [3]) [%]	Emax at 5 µM (YB5 cells [3]) [%]	Emax at 10 µM (YB5 cells [3]) [%]	Emax at 25 µM (YB5 cells [3]) [%]	relative activity to Depsipeptide @ 500 nM % (YB5 cells [3]) [%]	further results
Cc1c[nH]c(-c2cnc(NCCNc3ccc(C#N)cn3)nc2-c2ccc(Cl)cc2Cl)n1 [CHR99021]	–	–	–	–	–	GFP reactivation activity (YB5 cells [1]): no GFP reactivation activity
Nc1ncn([C@H]2C[C@H](O)[C@@H](CO)O2)c(=O)n1 [DAC, decitabine]	–	–	–	–	–	low expressed genes (RPKM<0.31) down (YB5 cells [2]): 7; low expressed genes (RPKM<0.31) up (YB5 cells [2]): 1238
[Cl-].[Li+] [LiCl]	–	–	–	–	–	GFP reactivation activity (YB5 cells [1]): no GFP reactivation activity
COc1cc(C(=O)c2sc(N[C@H]3CC4CCC3C4)nc2N)cc(OC)c1OC (stereo partly drawn) [MC180251, (4-amino-2-(((2S)-bicyclo[2.2.1]heptan-2-yl)amino)thiazol-5-yl)(3,4,5-trimethoxyphenyl)methanone]	0	0	0	0	–	relative activity to Depsipeptide @ 50 μM % (YB5 cells [3]): 0.00%
Nc1nc(N[C@H]2C[C@@H]3CC[C@H]2C3)sc1C(=O)c1cc2c(cc1[N+](=O)[O-])OCO2 [MC180300]	3.87	35.6	51.6	46.9	0.68	–
Nc1nc(N[C@H]2CC3CCC2C3)sc1C(=O)c1cc2c(cc1[N+](=O)[O-])OCCO2 (stereo partly shown) [MC180312]	9.73	35.6	42.3	9	–	relative activity to Depsipeptide @ 50 μM % (YB5 cells [3]): 6.38%
Nc1nc(N[C@H]2CC3CCC2C3)sc1C(=O)c1cccc([N+](=O)[O-])c1 (stereo partly shown) [MC180339]	3.05	16.9	29.2	8.71	3.29	–
Nc1nc(N[C@H]2CC3CCC2C3)sc1C(=O)c1ccc([N+](=O)[O-])cc1 (stereo partly shown) [MC180340]	2.83	13	11.6	3.41	3.54	–
N#Cc1ccccc1C(=O)c1sc(N[C@H]2CC3CCC2C3)nc1N (stereo partly drawn) [MC180342, 2-(4-amino-2-(((2S)-bicyclo[2.2.1]heptan-2-yl)amino)thiazole-5-carbonyl)benzonitrile]	22.7	107	–	78.8	10.42	–
Nc1nc(N[C@H]2CC3CCC2C3)sc1C(=O)c1ccc2nonc2c1 (stereo partly shown) [MC180345]	3.58	3.61	3.99	12.6	1.87	–
Nc1nc(N[C@H]2CC3CCC2C3)sc1C(=O)c1cccc2nonc12 (stereo partly drawn) [MC180349, (4-amino-2-(((2S)-bicyclo[2.2.1]heptan-2-yl)amino)thiazol-5-yl)(benzo[c][1,2,5]oxadiazol-4-yl)methanone]	27.5	91.2	74.5	36.6	10.98	–
O=C(/C=C/N1C[C@H]2C[C@@H]1CN2c1ccccn1)c1ccccc1O [PFI-3]	–	–	–	–	–	effect on GFP activation by HH1 or iCDK9 (YB5 cells [1]; 72 hr daily pre-treatment followed by 24 hr co-treatment): inhibited GFP activation
CC(C)(C)c1cnc(CSc2cnc(NC(=O)C3CCNCC3)s2)o1 [SNS-032]	–	–	–	–	–	survival (ID8; 10 mg/kg): extend the survival of the mice significantly; tumor burden (ID8; 10 mg/kg): reduce tumor burden; immune cells (CD45+) and T cells (CD3+) in the tumor microenvironment (ID8; in vivo treatment, ascites fluid, flow cytometry): increased populations
CN1CC[C@H](c2c(O)cc(O)c3c(=O)cc(-c4ccccc4Cl)oc23)[C@H](O)C1 [flavopiridol]	–	–	–	–	–	expression of SYNE1 and MGMT (YB5 cells [4]): gene reactivation
NC1CCC(Nc2cc(-c3cccc(NCc4cccc(F)c4)n3)c(Cl)cn2)CC1 (stereo not shown) [iCDK9]	–	–	–	–	–	expression of SYNE1 and MGMT (YB5 cells [4]): gene reactivation
